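GI50 marks 50% less growth. TGI denotes the concentration required for complete inhibition of growth.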
Key:
Test in all cases: inhibition of tumour cell growth, NCI panel, 384-well format
[1] = system: A498 renal
[2] = system: EKVX NSCLC
[3] = system: SNB-19 CNS
[4] = system: HOP-92 NSCLC
[5] = system: TK-10 renal
[6] = system: CAKI-1 renal
[7] = system: 786-0 renal
[8] = system: HT29 colon
[9] = system: M14 melanoma
[10] = system: CCRF-CEM leukemia
[11] = system: MDA-MB-231 breast
[12] = system: ACHN renal
[13] = system: OVCAR-8 ovarian

`COc1ccc([C@@H](O)c2cc(-c3ncnc4cc(N5CCOCC5)ccc34)c(F)cc2Cl)nn1` was tested, and the GI50 [1] was 0.372 µM, the TGI [1] was 1.99 µM and the GI50 [2] was 1.54 µM. It also gave a TGI [2] of 10.7 µM, a GI50 [3] of 7.21 µM and a TGI [3] of 28.3 µM. For the same molecule, the GI50 [4] was 0.583 µM, the TGI [4] was 5.19 µM and the GI50 [5] was 2.79 µM. For the same molecule, the TGI [5] was 14.6 µM, the GI50 [6] was 1.19 µM and the TGI [6] was 16 µM. The GI50 [7] was 2.6 µM, the TGI [7] was 17.8 µM and the GI50 [8] was 3.36 µM. It also gave a TGI [8] of 16.3 µM, a GI50 [9] of 4.23 µM and a TGI [9] of 16.9 µM. The GI50 [10] was 2.2 µM, the TGI [10] was 7 µM and the GI50 [11] was 3.52 µM. For the same molecule, the TGI [11] was 37.4 µM, the GI50 [12] was 2.38 µM and the TGI [12] was 16.5 µM. For the same molecule, the GI50 [13] was 3.97 µM and the TGI [13] was 22.4 µM.

Source: PubChem BioAssay (NCI)
